# In patent publication US20140023657A1, “IN VITRO METHOD FOR IDENTIFYING COMPOUNDS FOR CANCER THERAPY” (CONSEJO SUPERIOR DE INVESTIGACIONES CIENTIFICAS, priority 2005, published 2014):
# Where two headings read alike, the source gives them in different places.
# What was measured:
# BEC = test: Antiproliferative effect of ChoK inhibition, primary bronchial epithelial cells; format: cell-based, human
# Method: (§1) First, the mRNA levels corresponding to said enzyme in cell lines derived from patients with lung cancer were detected again by means of automated real-time quantitative PCR reactions with specific Taqman probes. They were carried out both on cell lines corresponding to the most common type of lung cancer (75-85%), non-microcytic or NSCLC (non small cell lung cancer), represented by lines H460 and H1299, and on lines corresponding to the other type of cancer, microcytic or SCLC (small cell lung cancer), represented by lines H510 and H82, the data being represented in logarithmic scale relating to normal primary human bronchial epithelial cells, BEC. […] An increase with respect to the controls, which is particularly considerable in the case of the SCLC lines, especially H510, is observed in all cases.
# (§2) The antiproliferative effect of ChoK inhibition in said cell lines caused by the addition of MN58b was also checked, obtaining the results shown in the following Table, in which the numbers between parentheses indicate the sensitivity of each cell compared with the primary cells. The differences between the primary cells and the four cell lines derived from tumors were significant (p:<0.001) in all the analyzed time periods.
# HMEC [1] = test: Antiproliferative effect of ChoK inhibition, primary mammary epithelial cells; format: cell-based, human
# Source text: as §2
# H1299 = test: Antiproliferative effect of ChoK inhibition, NSCLC line; format: cell-based, human; conditions: for IC50: H1299 (NSCLC); for sensitivity of the cell compared with the primary cells: number in parentheses
# Method: as §1, §2
# H460 = test: as above; format: cell-based, human; conditions: for IC50: H460 (NSCLC); for sensitivity of the cell compared with the primary cells: number in parentheses
# Method: as §1, §2
# H510 = test: Antiproliferative effect of ChoK inhibition, SCLC line; format: cell-based, human; conditions: for IC50: H510 (SCLC); for sensitivity of the cell compared with the primary cells: number in parentheses
# Method: as §1, §2
# H82 = test: as above; format: cell-based, human; conditions: for IC50: H82 (SCLC); for sensitivity of the cell compared with the primary cells: number in parentheses
# Method: as §1, §2
# [2] = target: T1, recombinant human choline kinase alpha (Homo sapiens, UniProt P35790); test: Enzymatic activity of recombinant choline kinase isoforms in E. coli extracts; format: biochemical; conditions: recombinant isoforms expressed in E. coli
# T1 construct: made in house; host or cells: E. coli
# Method: FIG. 9: Specificity of the inhibitor MN58b on choline kinase alpha. E. coil extracts in which recombinant human choline kinase alpha or choline kinase beta proteins are expressed were analyzed in the absence (0) or in the presence of increasing concentrations of MN58b.
# Once the oncogenic activity of the choline kinase alpha isoform, as well as its high incidence of overexpression in human tumors was verified, it was then studied if the anti-tumor effect of the inhibitor MN58b [Hernández-Alcoceba, R., Saniger, L., Campos, J., Núñdez, M. C., Khaless, F., Gallo, M. Á., Espinosa, A., Lacal, J. C. Oncogene, 15, 2289-2301 (1997); Hernández-Alcoceba, R., Fernández, F., Lacal J. C. Cancer Res. 55, 3112-3118 (1999); Ramirez de Molina A., Bañez-Coronel M., Gutiérrez R., Rodriguez González A., Olmeda D., Megias D., Lacal J. C. Cancer Res. 64:6732-6739 (2004)] is specific for this choline kinase alpha isoform or if, in contrast, it could also be attributed to its possible interaction with the choline kinase beta isoform. This verification is necessary because the two choline kinase alpha and choline kinase beta isoforms share up to 75% homology in the substrate binding domains and in the catalytic region. […]
# [3] = tested on: HEK293T cells transfected with the cka gene; test: Growth of tumors induced by choline kinase alpha overexpression in Nu/Nu mice; format: in vivo; conditions: 5 mg/Kg intraperitoneally, 5 consecutive days with 9 days of rest
# Method: Given that tumors have been generated in vivo by overexpressing choline kinase alpha and that MN58b is specific for this isoform, it has been verified if the growth of the tumors induced by ChoKα is susceptible to inhibition by MN58b. […] When the tumors reached a tumor volume of 0.1 cm^3, treatment with the specific choline kinase alpha inhibitor, MN58b, began, which was administered intraperitoneally in sterile physiological serum for 5 consecutive days with 9 days of rest at a dose of 5 mg/Kg. The control mice received equivalent carrier doses, following the same calendar and the tumors were monitored at least twice a week.
# Ch-ind-1 cells = test: Proliferation of inducible interference line with chemical ChoK inhibitors; format: cell-based, human; conditions: Ch-ind-1, analogous to parent MDA-MB-231
# Source text: FIG. 23: Proliferation of MDA-MB-231 (upper row of plaques) and Ch-ind-1 (lower row of plaques) cells in growth permissive conditions (“Control” column? or in the presence of the chemical inhibitors of choline kinase MN58b (middle column) or RSM936 (right column).
# FIGS. 23 and 24 show the results obtained in Ch-ind-1 cells, a cell line derived from MDA-MB-231, capable of expressing the interference construction after treatment with the inducing agent doxocycline. […] The genetic inhibition of ChoKα is correlated with a reduction of cell proliferation (determined by pCNA) and an increase of cell death due to apoptosis (determined by PARPdig, degraded PARP protein, which is an indicator of apoptosis). The effect begins to be seen after 10 days, although it is still very initial, and is much more pronounced 20 days after the beginning of the experiment (in which the population has very little ChoKα expression).
# MDA-MB-231 = conditions: MDA-MB-231, previously described; cited from earlier work
# HMEC [4] = conditions: cited from earlier work
# T1 sequence (P35790 whole entry, canonical isoform): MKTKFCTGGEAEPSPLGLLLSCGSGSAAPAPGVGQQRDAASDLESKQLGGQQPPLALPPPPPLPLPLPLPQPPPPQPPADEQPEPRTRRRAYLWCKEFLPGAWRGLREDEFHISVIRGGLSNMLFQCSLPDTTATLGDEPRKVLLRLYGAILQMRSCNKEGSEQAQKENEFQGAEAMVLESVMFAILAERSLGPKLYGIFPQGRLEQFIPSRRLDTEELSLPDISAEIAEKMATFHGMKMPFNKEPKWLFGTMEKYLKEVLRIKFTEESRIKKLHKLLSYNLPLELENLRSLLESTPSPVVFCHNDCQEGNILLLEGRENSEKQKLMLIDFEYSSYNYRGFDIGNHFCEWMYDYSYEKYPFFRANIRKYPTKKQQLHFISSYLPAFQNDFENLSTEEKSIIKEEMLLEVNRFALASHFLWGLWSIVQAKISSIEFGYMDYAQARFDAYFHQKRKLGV
substance,measurement,setting,value
MN58b,IC50,"BEC; 48 h, read-out: 48 h IC50",40500 ± 6200 nM
same,IC50,"BEC; 72 h, read-out: 72 h IC50",18300 ± 4800 nM
same,IC50,"BEC; 114 h, read-out: 114 h IC50",4200 ± 800 nM
same,IC50,"HMEC [1]; 48 h, read-out: 48 h IC50",44700 ± 4950 nM
same,IC50,"HMEC [1]; 72 h, read-out: 72 h IC50",20900 ± 2700 nM
same,IC50,"HMEC [1]; 114 h, read-out: 114 h IC50",3400 ± 130 nM
same,IC50,"H1299; 48 h, read-out: 48 h IC50",10300 ± 2500 nM
same,IC50,"H1299; 72 h, read-out: 72 h IC50",2700 ± 700 nM
same,IC50,"H1299; 114 h, read-out: 114 h IC50",900 ± 100 nM
same,sensitivity of the cell compared with the primary cells,"H1299; H1299, 48 h",4
same,sensitivity of the cell compared with the primary cells,"H1299; H1299, 72 h",8
same,sensitivity of the cell compared with the primary cells,"H1299; H1299, 114 h",4
same,IC50,"H460; 48 h, read-out: 48 h IC50",7030 ± 2030 nM
same,IC50,"H460; 72 h, read-out: 72 h IC50",2600 ± 800 nM
same,IC50,"H460; 114 h, read-out: 114 h IC50",1100 ± 100 nM
same,sensitivity of the cell compared with the primary cells,"H460; H460, 48 h",6
same,sensitivity of the cell compared with the primary cells,"H460; H460, 72 h",8
same,sensitivity of the cell compared with the primary cells,"H460; H460, 114 h",3
same,IC50,"H510; 48 h, read-out: 48 h IC50",1100 ± 100 nM
same,IC50,"H510; 72 h, read-out: 72 h IC50",400 ± 50 nM
same,IC50,"H510; 114 h, read-out: 114 h IC50",100 ± 30 nM
same,sensitivity of the cell compared with the primary cells,"H510; H510, 48 h",41
same,sensitivity of the cell compared with the primary cells,"H510; H510, 72 h",53
same,sensitivity of the cell compared with the primary cells,"H510; H510, 114 h",27
same,IC50,"H82; 48 h, read-out: 48 h IC50",1900 ± 200 nM
same,IC50,"H82; 72 h, read-out: 72 h IC50",800 ± 40 nM
same,IC50,"H82; 114 h, read-out: 114 h IC50",270 ± 10 nM
same,sensitivity of the cell compared with the primary cells,"H82; H82, 48 h",24
same,sensitivity of the cell compared with the primary cells,"H82; H82, 72 h",27
same,sensitivity of the cell compared with the primary cells,"H82; H82, 114 h",12
same,times more active against choline kinase alpha than against choline kinase beta,[2],20 times
same,tumor growth reduction,[3],80%
same,sensitivity of proliferation to chemical inhibition of ChoKα,Ch-ind-1 cells,sensitive to the chemical inhibition
same,anti-tumor effect of pharmacological inhibition of choline kinase,MDA-MB-231,strong anti-tumor effect due to apoptosis induction
same,cell fate of primary cells after treatment,HMEC [4]; HMEC treated with the inhibitor,cycle-arrested
same,effect on the viability of normal primary cells,"HMEC [4]; HMEC, chemical inhibitor",no effect on the viability
